Read-outs that look alike come from different tables or passages of the source.
How the values were obtained:
HCV replicon = HCV replicon FRET / luciferase assay; assay type: cell-based; details: Hepatitis C virus
Protocol: FRET Assay Preparation. The HCV FRET screening assay was performed in 96-well cell culture plates. The FRET peptide (Anaspec, Inc.) (Taliani et al., Anal. Biochem. 1996, 240, 60-67) contains a fluorescence donor, EDANS, near one end of the peptide and an acceptor, DABCYL, near the other end. The fluorescence of the peptide is quenched by […] resonance energy transfer (RET) between the donor and the acceptor, but as the NS3 protease cleaves the peptide the products are released from RET quenching and the fluorescence of the donor becomes apparent. The assay reagent was made as follows: 5× cell Luciferase cell culture lysis reagent from Promega (#E153A) diluted to 1× with dH2O, NaCl added to 150 mM final, the FRET peptide diluted to 20 μM final from a 2 mM stock.
To prepare plates, HCV replicon cells, with or without a Renilla luciferase reporter gene, were trypsinized and plated in a 96-well plate with titrated test compounds added in columns 3 through 12; columns 1 and 2 contained a control compound (HCV control inhibitor), and the bottom row contained cells with DMSO only. The plates were then placed in a CO2 incubator at 37° C.
Assays. Subsequent to addition of the test compounds described above (FRET Assay Preparation), at various times the plate was removed and Alamar blue solution (Trek Diagnostics, #00-100) was added to measure cellular toxicity. After reading in a Cytoflour 4000 instrument (PE Biosystems), plates were rinsed with PBS and then used for FRET assay by the addition of 30 ul of the FRET peptide assay reagent described above (FRET Assay Preparation) per well. The plate was then placed into the Cytoflour 4000 instrument which had been set to 340 excite/490 emission, automatic mode for up to 20 cycles and the plate read in a kinetic mode. Typically, the signal to noise using an endpoint analysis after the reads was at least three-fold. Alternatively, after Alamar blue reading, plates were rinsed with PBS, then used for luciferase assay using the Promega Dual-Glo Luciferase Assay System or the Promega EnduRen Live Cell Substrate assay.
Compound analysis was performed by quantification of the relative HCV replicon inhibition and the relative cytotoxicity values. To calculate cytoxicity values, the average Alamar Blue fluorescence signals from the control wells were set as 100% non-toxic. The individual signals in each of the compound test wells were then divided by the average control signal and multiplied by 100% to determine […]. To calculate the HCV replicon inhibition values, an average background value was obtained from the two wells containing the highest amount of HCV control inhibitor at the end of the assay period. These numbers were similar to those obtained from naive Huh-7 cells. The background numbers were then subtracted from the average signal obtained from the control wells and this number was used as 100% activity. The individual signals in each of the compound test wells were then divided by the averaged control values after background subtraction and multiplied by 100% to determine percent activity. EC50 values were calculated as the concentration which caused a 50% reduction in FRET or luciferase activity. The two numbers generated for the compound plate, percent cytoxicity and percent activity, were used to determine compounds of interest for further analysis.

HCV NS5B = biological target: T1, HCV NS5B (Hepatitis C virus genotype 1b, UniProt Q9WMX2); experiment: HCV NS5B RdRp enzyme assay (standard or modified); assay type: biochemical
T1 construct: The protein was expressed with an 18 amino acid C-terminal truncation to enhance the solubility; made in house; host or cells: E. coli BL21(DE3)
T1 sequence (Q9WMX2 2420-2992): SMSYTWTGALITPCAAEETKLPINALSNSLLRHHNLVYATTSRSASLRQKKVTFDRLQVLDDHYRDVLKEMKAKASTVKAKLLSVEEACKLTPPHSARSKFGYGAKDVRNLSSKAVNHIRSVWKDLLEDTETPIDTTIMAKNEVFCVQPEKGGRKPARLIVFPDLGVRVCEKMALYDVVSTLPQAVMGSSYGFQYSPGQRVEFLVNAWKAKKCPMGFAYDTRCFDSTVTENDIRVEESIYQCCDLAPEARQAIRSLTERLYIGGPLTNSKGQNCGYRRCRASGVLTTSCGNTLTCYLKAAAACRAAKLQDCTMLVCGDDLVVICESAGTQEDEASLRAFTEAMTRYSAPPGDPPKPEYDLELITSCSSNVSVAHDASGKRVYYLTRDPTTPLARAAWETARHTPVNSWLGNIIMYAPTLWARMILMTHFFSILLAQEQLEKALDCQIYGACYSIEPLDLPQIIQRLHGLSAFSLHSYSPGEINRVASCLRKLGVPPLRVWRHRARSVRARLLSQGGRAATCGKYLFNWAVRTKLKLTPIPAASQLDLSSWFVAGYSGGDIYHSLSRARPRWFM
Protocol: HCV NS5B RdRp cloning, expression, and purification. The cDNA encoding the NS5B protein of HCV, genotype 1b, was cloned into the pET21a expression vector. The protein was expressed with an 18 amino acid C-terminal truncation to enhance the solubility. The E. coli competent cell line BL21(DE3) was used for expression of the protein. Cultures were grown at 37° C. for ˜4 hours until the cultures reached an optical density of 2.0 at 600 nm. The cultures were cooled to 20° C. and induced with 1 mM IPTG. Fresh ampicillin was added to a final concentration of 50 μg/ml and the cells were grown overnight at 20° C.
Cell pellets (3 L) were lysed for purification to yield 15-24 mgs of purified NS5B. The lysis buffer consisted of 20 mM Tris-HCl, pH 7.4, 500 mM NaCl, 0.5% triton X-100, 1 mM DTT, 1mM EDTA, 20% glycerol, 0.5 mg/ml lysozyme, 10 mM MgCl2, 15 ug/ml deoxyribonuclease I, and Complete TM protease inhibitor tablets (Roche). After addition of the lysis buffer, frozen cell pellets were resuspended using a tissue homogenizer. To reduce the viscosity of the sample, aliquots of the lysate were sonicated on ice using a microtip attached to a Branson sonicator. The sonicated lysate was centrifuged at 100,000×g for 1 hr at 4° C. and filtered through a 0.2 μm filter unit (Corning).
The protein was purified using two sequential chromatography steps: Heparin sepharose CL-6B and polyU sepharose 4B (Pharmacia). The chromatography buffers were identical to the lysis buffer but contained no lysozyme, deoxyribonuclease I, MgCl2 or protease inhibitor and the NaCl concentration of the buffer was adjusted according to the requirements for charging the protein onto the column. Each column was eluted with a NaCl gradient which varied in length from 5-50 column volumes depending on the column type. After the final chromatography step, the resulting purity of the enzyme is >90% based on SDS-PAGE analysis. The enzyme was aliquoted and stored at −80° C.
Standard HCV NS5B RdRp enzyme assay. HCV RdRp genotype 1b assays were run in a final volume of 60 μl in 96 well plates (Corning 3600). The assay buffer is composed of 20 mM Hepes, pH 7.5, 2.5 mM KCl, 2.5 mM MgCl2, 1 mM DTT, 1.6 U RNAse inhibitor (Promega N2515), 0.01 mg/ml BSA (Sigma B6917), and 2% glycerol. All compounds were serially diluted (3-fold) in DMSO and diluted further in water such that the final concentration of DMSO in the assay was 2%. HCV RdRp genotype 1b enzyme was used at a final concentration of 28 nM. A polyA template was used at 6 nM, and a biotinylated oligo-dT12 primer was used at 180 nM final concentration. Template was obtained commercially (Amersham 27-4110). Biotinylated primer was prepared by Sigma Genosys. 3H-UTP was used at 0.6 μCi (0.29 μM total UTP). Reactions were initiated by the addition of enzyme, incubated at 30° C. for 60 min, and stopped by adding 25 μl of 50 mM EDTA containing SPA beads (4 μg/pl, Amersham RPNQ 0007). Plates were read on a Packard Top Count NXT after >1 hr incubation at room temperature.
Modified HCV NS5B RdRp enzyme assay. A modified enzyme assay was performed essentially as described for the standard enzyme assay except for the following: The biotinylated oligo dT12 primer was precaptured on streptavidin-coated SPA beads by mixing primer and beads in assay buffer and incubating at room temperature for one hour. Unbound primer was removed after centrifugation. The primer-bound beads were resuspended in 20 mM Hepes buffer, pH 7.5 and used in the assay at final concentrations of 20 nM primer and 0.67 μg/μl beads. Order of addition in the assay: enzyme (1.75 nM) was added to diluted compound followed by the addition of a mixture of template (0.36 nM), 3H-UTP (0.6 μCi, 0.29 μM), and primer-bound beads, to initiate the reaction; concentrations given are final. Reactions were allowed to proceed for 4 hours at 30° C.
IC50 values for compounds were determined using seven different [I]. […]

[1] = HCV replicon cells, 50% reduction in FRET or luciferase activity, read-out: EC50
[2] = HCV NS5B RdRp genotype 1b, standard or modified enzyme assay not specified, read-out: IC50

SMILES | EC50 (HCV replicon; [1]) | IC50 (HCV NS5B; [2]) | EC50 (HCV replicon) | IC50 (HCV NS5B)
COc1ccc2c(c1)C1CC1(C(=O)N1CCCN(Cc3cccnc3)CC1)Cn1c-2c(C2CCCCC2)c2ccc(C(=O)NS(C)(=O)=O)cc21 (stereo not drawn) | 0.003 to 1 µM | 0.003 to 1 µM |  | 
COc1ccc2c(c1)C1CC1(C(=O)N(C)C1CCN(C)CC1)Cn1c-2c(C2CCCCC2)c2ccc(C(=O)NS(=O)(=O)N(C)C)cc21 (stereo not drawn) | 0.003 to 1 µM | 0.003 to 1 µM |  | 
COc1ccc2c(c1)C1CC1(C(=O)N1CCN(Cc3ccccc3)C[C@H]1C)Cn1c-2c(C2CCCCC2)c2ccc(C(=O)NS(C)(=O)=O)cc21 (stereo partly drawn) | 0.003 to 1 µM | 0.003 to 1 µM |  | 
COc1ccc2c(c1)C1CC1(C(=O)N(C)C(CN(C)C)c1ccccc1)Cn1c-2c(C2CCCCC2)c2ccc(C(=O)NS(=O)(=O)N(C)C)cc21 (stereo not drawn) | 0.003 to 1 µM | 0.003 to 1 µM |  | 
COc1ccc2c(c1)C1CC1(C(=O)N1CCNC(c3ccc(F)cc3)C1)Cn1c-2c(C2CCCCC2)c2ccc(C(=O)NS(=O)(=O)N(C)C)cc21 (stereo not drawn) | 0.003 to 1 µM | 0.003 to 1 µM |  | 
COc1ccc2c(c1)C1CC1(C(=O)N(C)CCN1CCCC1)Cn1c-2c(C2CCCCC2)c2ccc(C(=O)NS(=O)(=O)N(C)C)cc21 (stereo not drawn) | 0.003 to 1 µM | 0.003 to 1 µM |  | 
COc1ccc2c(c1)C1CC1(C(=O)N1CCCN(C(=O)OC(C)(C)C)CC1)Cn1c-2c(C2CCCCC2)c2ccc(C(=O)NS(=O)(=O)C3CC3)cc21 (stereo not drawn) |  | 0.003 to 1 µM |  | 
COc1ccc2c(c1)C1CC1(C(=O)N(C)CC1CCCN1C)Cn1c-2c(C2CCCCC2)c2ccc(C(=O)NS(=O)(=O)N(C)C)cc21 (stereo not drawn) | 0.003 to 1 µM | 0.003 to 1 µM |  | 
COc1ccc2c(c1)C1CC1(C(=O)N1CCN(C)CC1c1ccccc1)Cn1c-2c(C2CCCCC2)c2ccc(C(=O)NS(=O)(=O)N(C)C)cc21 (stereo not drawn) [drawing 64] |  | 0.003 to 1 µM |  | 
COc1ccc2c(c1)C1CC1(C(=O)N1CCC[C@H]1CN1CCCC1)Cn1c-2c(C2CCCCC2)c2ccc(C(=O)NS(=O)(=O)C3CC3)cc21 (stereo partly drawn) | 0.003 to 1 µM | 0.003 to 1 µM |  | 
COc1ccc2c(c1)C1CC1(C(=O)O[C@@H]1C[C@H](C)CC[C@H]1C(C)C)Cn1c-2c(C2CCCCC2)c2ccc(C(=O)NS(=O)(=O)N(C)C)cc21 (stereo partly drawn) | > 1 µM | 0.003 to 1 µM |  | 
COc1ccc2c(c1)C1CC1(C(=O)N1CCN(C)C[C@@H]1c1ccccc1)Cn1c-2c(C2CCCCC2)c2ccc(C(=O)NS(=O)(=O)C(C)C)cc21 (stereo partly drawn) | 0.003 to 1 µM | 0.003 to 1 µM |  | 
COc1ccc2c(c1)C1CC1(C(=O)N1CCCN(CCCN3CCOCC3)CC1)Cn1c-2c(C2CCCCC2)c2ccc(C(=O)NS(=O)(=O)C(C)C)cc21 (stereo not drawn) |  | 0.003 to 1 µM |  | 
COc1ccc2c(c1)C1CC1(C(=O)N(C)C1CC3CCC1N3C)Cn1c-2c(C2CCCCC2)c2ccc(C(=O)NS(=O)(=O)N(C)C)cc21 (stereo not drawn) |  |  | 0.003 to 1 µM | 0.003 to 1 µM
COc1ccc2c(c1)C1C[C@]1(C(=O)N1CCN(C)CC1c1ccccc1)Cn1c-2c(C2CCCCC2)c2ccc(C(=O)NS(=O)(=O)C(C)C)cc21 (stereo partly drawn) [drawing 79] |  | 0.003 to 1 µM |  | 
COc1ccc2c(c1)C1CC1(C(=O)N1CCNC(c3ccccc3)C1)Cn1c-2c(C2CCCCC2)c2ccc(C(=O)NS(=O)(=O)N(C)C)cc21 (stereo not drawn) | 0.003 to 1 µM | 0.003 to 1 µM |  | 
COc1ccc2c(c1)C1CC1(C(=O)N1CCCN(Cc3cccnc3)CC1)Cn1c-2c(C2CCCCC2)c2ccc(C(=O)NS(=O)(=O)N(C)C)cc21 (stereo not drawn) | 0.003 to 1 µM | 0.003 to 1 µM |  | 
COc1ccc2c(c1)C1C[C@]1(C(=O)N1CCN(C)CC1c1ccccc1)Cn1c-2c(C2CCCCC2)c2ccc(C(=O)NS(=O)(=O)C(C)C)cc21 (stereo partly drawn) [drawing 78] | 0.003 to 1 µM | 0.003 to 1 µM |  | 
COc1ccc2c(c1)C1CC1(C(=O)N[C@@H]1CCC[C@H]1N(C)C)Cn1c-2c(C2CCCCC2)c2ccc(C(=O)NS(=O)(=O)N(C)C)cc21 (stereo partly drawn) | 0.003 to 1 µM | 0.003 to 1 µM |  | 
COc1ccc2c(c1)C1CC1(C(=O)N1CCN(C)CC1c1ccccc1)Cn1c-2c(C2CCCCC2)c2ccc(C(=O)NS(=O)(=O)N(C)C)cc21 (stereo not drawn) [drawing 65] |  | 0.003 to 1 µM |  | 
COc1ccc2c(c1)C=C(C(=O)N1CCCN(CCCN3CCOCC3)CC1)Cn1c-2c(C2CCCCC2)c2ccc(C(=O)NS(=O)(=O)C3CC3)cc21 |  | 0.003 to 1 µM |  | 
COc1ccc2c(c1)C1CC1(C(=O)N1CCN(C)CC1c1ccccc1)Cn1c-2c(C2CCCCC2)c2ccc(C(=O)NS(C)(=O)=O)cc21 (stereo not drawn) | 0.003 to 1 µM | 0.003 to 1 µM |  | 
COc1ccc(C2CN(C(=O)C34CC3c3cc(OC)ccc3-c3c(C5CCCCC5)c5ccc(C(=O)NS(=O)(=O)N(C)C)cc5n3C4)CCN2)cc1 (stereo not drawn) | 0.003 to 1 µM | 0.003 to 1 µM |  | 
COc1ccc2c(c1)C1CC1(C(=O)N1CCN(C)C[C@H]1c1ccccc1)Cn1c-2c(C2CCCCC2)c2ccc(C(=O)NS(=O)(=O)C(C)C)cc21 (stereo partly drawn) | 0.003 to 1 µM | 0.003 to 1 µM |  | 
COc1ccc2c(c1)C1CC1(C(=O)N1CCN(C(=O)OC(C)(C)C)C[C@H]1c1ccccc1)Cn1c-2c(C2CCCCC2)c2ccc(C(=O)NS(C)(=O)=O)cc21 (stereo partly drawn) | 0.003 to 1 µM | 0.003 to 1 µM |  | 
COc1ccc2c(c1)C1CC1(C(=O)O[C@@H]1C[C@@H]3CC[C@@]1(C)C3(C)C)Cn1c-2c(C2CCCCC2)c2ccc(C(=O)NS(=O)(=O)N(C)C)cc21 (stereo partly drawn) | > 1 µM | 0.003 to 1 µM |  | 
COc1ccc2c(c1)C1CC1(C(=O)N1CCN(C)CC1c1ccccc1)Cn1c-2c(C2CCCCC2)c2ccc(C(=O)NS(=O)(=O)C(C)C)cc21 (stereo not drawn) [drawing 56] |  | 0.003 to 1 µM |  | 
COc1ccc2c(c1)C1CC1(C(=O)N1CCN(C)CC1c1ccccc1)Cn1c-2c(C2CCCCC2)c2ccc(C(=O)NS(=O)(=O)N(C)C)cc21 (stereo not drawn) [drawing 46] |  | 0.003 to 1 µM |  | 

— patent US7538102B2, “Compounds for the treatment of Hepatitis C” (Bristol-Myers Squibb Company, priority 2007, dated 2009)
